From US20220218852A1, “NOVEL RADIOLABELLED CXCR4-TARGETING COMPOUNDS FOR DIAGNOSIS AND THERAPY” (PROVINCIAL HEALTH SERVICES AUTHORITY, priority 2019, published 2022)
Positions of bridges follow the written chain, without caps; N, C: chain ends. Non-standard residues stand in square brackets, D forms with d. Residues, ends and D or L forms follow the SMILES beside them. Groups on a side chain read outwards from the residue. *: point of attachment. DOTA = O=C(O)CN1CCN(CC(=O)O)CCN(CC(=O)*)CCN(CC(=O)O)CC1; 2Nal = N[C@@H](Cc1ccc2ccccc2c1)C(=O)O; Lys(iPr) = CC(C)NCCCC[C@H](N)C(=O)O

What was measured:
Type in all cases: in vivo
[1] = Biodistribution in Jeko1 tumor-bearing mice; settings: male, NOD.Cg-Rag1^tm1MomII2rg^tm1Wjl/SzJ (NRG), mouse, iv, total radioactivity
Procedure: (§1) For Daudi, Z138, GRANTA519 and Jeko1 xenografts, male NOD.Cg-Rag1^tm1MomII2rg^tm1Wjl/SzJ (NRG) mice were subcutaneously inoculated on the left flank with 5×10^6 cells (100 μL; 1:1 ratio of PBS/Matrigel) and tumors were grown to a size of 200-500 mm^3. For PC-3 xenografts, male NOD.Cg-Rag1^tm1MomII2rg^tm1Wjl/SzJ (NRG) mice were subcutaneously inoculated on the left flank with 5×10^6 PC-3 cells (100 μL; 1:1 ratio of PBS/Matrigel) and tumors were grown to a size of 200-400 mm^3.
(§2) The mice were euthanized via CO2 inhalation while anesthetized with isoflurane. Tissues were harvested, washed in PBS, blotted dry, weighed, and measured on a Hidex AMG Automatic Gamma Counter.

[2] = system: Jeko1 mantle cell lymphoma xenografts; assay: Biodistribution in Jeko1 tumor-bearing mice
Procedure: as §1, §2

[3] = Biodistribution in GRANTA519 tumor-bearing mice; settings: male, NOD.Cg-Rag1^tm1MomII2rg^tm1Wjl/SzJ (NRG), mouse, iv, total radioactivity, GRANTA519
Procedure: as §1, §2

[4] = system: GRANTA519 mantle cell lymphoma xenografts; assay: Biodistribution in GRANTA519 tumor-bearing mice; settings: GRANTA519
Procedure: as §1, §2

[5] = adrenals, 1 h, read-out: Biodistribution Adrenals
[6] = adrenals, 1 h blocked (7.5 μg LY2510924 i.p.), read-out: Biodistribution Adrenals
[7] = bone, 1 h, read-out: Biodistribution Bone
[8] = bone, 1 h blocked (7.5 μg LY2510924 i.p.), read-out: Biodistribution Bone
[9] = brain, 1 h, read-out: Biodistribution Brain
[10] = brain, 1 h blocked (7.5 μg LY2510924 i.p.), read-out: Biodistribution Brain
[11] = fat, 1 h, read-out: Biodistribution Fat
[12] = fat, 1 h blocked (7.5 μg LY2510924 i.p.), read-out: Biodistribution Fat
[13] = heart, 1 h, read-out: Biodistribution Heart
[14] = heart, 1 h blocked (7.5 μg LY2510924 i.p.), read-out: Biodistribution Heart
[15] = intestine, 1 h, read-out: Biodistribution Intestine
[16] = intestine, 1 h blocked (7.5 μg LY2510924 i.p.), read-out: Biodistribution Intestine
[17] = kidney, 1 h, read-out: Biodistribution Kidney
[18] = kidney, 1 h blocked (7.5 μg LY2510924 i.p.), read-out: Biodistribution Kidney
[19] = liver, 1 h, read-out: Biodistribution Liver
[20] = liver, 1 h blocked (7.5 μg LY2510924 i.p.), read-out: Biodistribution Liver
[21] = lung, 1 h, read-out: Biodistribution Lung
[22] = lung, 1 h blocked (7.5 μg LY2510924 i.p.), read-out: Biodistribution Lung
[23] = muscle, 1 h, read-out: Biodistribution Muscle
[24] = muscle, 1 h blocked (7.5 μg LY2510924 i.p.), read-out: Biodistribution Muscle
[25] = pancreas, 1 h, read-out: Biodistribution Pancreas
[26] = pancreas, 1 h blocked (7.5 μg LY2510924 i.p.), read-out: Biodistribution Pancreas
[27] = spleen, 1 h, read-out: Biodistribution Spleen
[28] = spleen, 1 h blocked (7.5 μg LY2510924 i.p.), read-out: Biodistribution Spleen
[29] = stomach, 1 h, read-out: Biodistribution Stomach
[30] = stomach, 1 h blocked (7.5 μg LY2510924 i.p.), read-out: Biodistribution Stomach
[31] = testes, 1 h, read-out: Biodistribution Testes
[32] = testes, 1 h blocked (7.5 μg LY2510924 i.p.), read-out: Biodistribution Testes
[33] = whole blood, 1 h, read-out: Biodistribution Blood
[34] = whole blood, 1 h blocked (7.5 μg LY2510924 i.p.), read-out: Biodistribution Blood
[35] = 1 h blocked (7.5 μg LY2510924 i.p.)

SMILES: CC(C)NCCCC[C@@H]1NC(=O)[C@H](Cc2ccc(O)cc2)NC(=O)[C@H](Cc2ccccc2)NC(=O)CC[C@H](C(=O)N[C@@H](CCCCNC(C)C)C(=O)N[C@@H](CCCCNC(=O)[C@H](CCC(=O)O)NC(=O)[C@H](CCC(=O)O)NC(=O)[C@H](CCC(=O)O)NC(=O)CN2CCN(CC(=O)O)CCN(CC(=O)O)CCN(CC(=O)O)CC2)C(N)=O)NC(=O)CNC(=O)[C@H](Cc2ccc3ccccc3c2)NC(=O)[C@@H](CCCNC(=N)N)NC1=O [[^68Ga]Ga-BL02, metal not drawn] (FY[Lys(iPr)][dR][2Nal]G[dE][Lys(iPr)]K([Glu-Glu-Glu-DOTA])-NH2; lactam N-7)
- tissue uptake at 1 h ([1]; Jeko1 tumor, 1 h, read-out: Biodistribution Jeko1 (tumor)): 11.4 %ID/g
- tissue uptake at 1 h ([1]; Jeko1 tumor, 1 h blocked (7.5 μg LY2510924 i.p.), read-out: Biodistribution Jeko1 (tumor)): 1.32 %ID/g
- tissue uptake at 1 h [1, 5]: 0.23 %ID/g
- tissue uptake at 1 h [1, 6]: 0.47 %ID/g
- tissue uptake at 1 h [1, 7]: 0.47 %ID/g
- tissue uptake at 1 h [1, 8]: 0.18 %ID/g
- tissue uptake at 1 h [1, 9]: 0.02 %ID/g
- tissue uptake at 1 h [1, 10]: 0.03 %ID/g
- tissue uptake at 1 h [1, 11]: 0.05 %ID/g
- tissue uptake at 1 h [1, 12]: 0.14 %ID/g
- tissue uptake at 1 h [1, 13]: 0.13 %ID/g
- tissue uptake at 1 h [1, 14]: 0.35 %ID/g
- tissue uptake at 1 h [1, 15]: 0.19 %ID/g
- tissue uptake at 1 h [1, 16]: 0.44 %ID/g
- tissue uptake at 1 h [1, 17]: 3.32 %ID/g
- tissue uptake at 1 h [1, 18]: 8.91 %ID/g
- tissue uptake at 1 h [1, 19]: 0.77 %ID/g
- tissue uptake at 1 h [1, 20]: 0.55 %ID/g
- tissue uptake at 1 h [1, 21]: 0.74 %ID/g
- tissue uptake at 1 h [1, 22]: 1.05 %ID/g
- tissue uptake at 1 h [1, 23]: 0.06 %ID/g
- tissue uptake at 1 h [1, 24]: 0.2 %ID/g
- tissue uptake at 1 h [1, 25]: 0.09 %ID/g
- tissue uptake at 1 h [1, 26]: 0.26 %ID/g
- tissue uptake at 1 h [1, 27]: 0.7 %ID/g
- tissue uptake at 1 h [1, 28]: 0.57 %ID/g
- tissue uptake at 1 h [1, 29]: 0.06 %ID/g
- tissue uptake at 1 h [1, 30]: 0.13 %ID/g
- tissue uptake at 1 h [1, 31]: 0.14 %ID/g
- tissue uptake at 1 h [1, 32]: 0.29 %ID/g
- tissue uptake at 1 h [1, 33]: 0.38 %ID/g
- tissue uptake at 1 h [1, 34]: 1.08 %ID/g
- Ratio Tumor: Blood ([2]; 1 h): 31.30
- Ratio Tumor: Bone ([2]; 1 h): 37.23
- Ratio Tumor: Liver ([2]; 1 h): 15.41
- Ratio Tumor: Lung ([2]; 1 h): 15.76
- Ratio Tumor: Muscle ([2]; 1 h): 180.39
- Ratio Tumor: Spleen ([2]; 1 h): 19.78
- Ratio Tumor: Blood [2, 35]: 1.74
- Ratio Tumor: Bone [2, 35]: 8.83
- Ratio Tumor: Liver [2, 35]: 2.59
- Ratio Tumor: Lung [2, 35]: 1.48
- Ratio Tumor: Muscle [2, 35]: 8.71
- Ratio Tumor: Spleen [2, 35]: 3.10
- tissue uptake at 1 h [3, 5]: 3.48 %ID/g
- tissue uptake at 1 h [3, 6]: 7.4 %ID/g
- tissue uptake at 1 h [3, 7]: 0.16 %ID/g
- tissue uptake at 1 h [3, 8]: 0.25 %ID/g
- tissue uptake at 1 h [3, 9]: 0.01 %ID/g
- tissue uptake at 1 h [3, 10]: 0.02 %ID/g
- tissue uptake at 1 h [3, 11]: 0.05 %ID/g
- tissue uptake at 1 h [3, 12]: 0.1 %ID/g
- tissue uptake at 1 h [3, 13]: 0.49 %ID/g
- tissue uptake at 1 h [3, 14]: 0.53 %ID/g
- tissue uptake at 1 h [3, 15]: 0.22 %ID/g
- tissue uptake at 1 h [3, 16]: 0.46 %ID/g
- tissue uptake at 1 h [3, 17]: 0.62 %ID/g
- tissue uptake at 1 h [3, 18]: 0.81 %ID/g
- tissue uptake at 1 h [3, 19]: 0.09 %ID/g
- tissue uptake at 1 h [3, 20]: 0.19 %ID/g
- tissue uptake at 1 h [3, 21]: 0.12 %ID/g
- tissue uptake at 1 h [3, 22]: 0.25 %ID/g
- tissue uptake at 1 h [3, 23]: 0.07 %ID/g
- tissue uptake at 1 h [3, 24]: 0.14 %ID/g
- tissue uptake at 1 h [3, 25]: 0.2 %ID/g
- tissue uptake at 1 h [3, 26]: 0.34 %ID/g
- tissue uptake at 1 h [3, 27]: 0.49 %ID/g
- tissue uptake at 1 h [3, 28]: 0.53 %ID/g
- tissue uptake at 1 h [3, 29]: 0.05 %ID/g
- tissue uptake at 1 h [3, 30]: 0.12 %ID/g
- tissue uptake at 1 h [3, 31]: 0.16 %ID/g
- tissue uptake at 1 h [3, 32]: 0.2 %ID/g
- tissue uptake at 1 h ([3]; tumor (GRANTA519 xenograft), 1 h, read-out: Biodistribution GRANTA519 (tumor)): 5.5 %ID/g
- tissue uptake at 1 h ([3]; tumor (GRANTA519 xenograft), 1 h blocked (7.5 μg LY2510924 i.p.), read-out: Biodistribution GRANTA519 (tumor)): 0.72 %ID/g
- tissue uptake at 1 h [3, 33]: 0.41 %ID/g
- tissue uptake at 1 h [3, 34]: 0.83 %ID/g
- Ratio Tumor: Blood ([4]; 1 h): 13.83
- Ratio Tumor: Bone ([4]; 1 h): 45.39
- Ratio Tumor: Liver ([4]; 1 h): 11.28
- Ratio Tumor: Lung ([4]; 1 h): 9.12
- Ratio Tumor: Muscle ([4]; 1 h): 83.17
- Ratio Tumor: Spleen ([4]; 1 h): 15.86
- Ratio Tumor: Blood [4, 35]: 0.94
- Ratio Tumor: Bone [4, 35]: 4.27
- Ratio Tumor: Liver [4, 35]: 1.37
- Ratio Tumor: Lung [4, 35]: 0.96
- Ratio Tumor: Muscle [4, 35]: 5.36
- Ratio Tumor: Spleen [4, 35]: 1.78
